Assay results: PubChem BioAssay AID330 (DTP/NCI, 2004)
“And” between values parts separate entries of the source, which are not always exact repeats. Equal entries are not always repeated. Toxic doses and inconclusive results are not listed. The calls were made as follows: active = survival T/C of 150% or more; inactive = T/C below 125% in these data.

Test system: P388 leukemia ip, CD2F1 mice, survival T/C
Experiment: NCI In Vivo Anticancer Drug Screen. Data for tumor model P388 Leukemia (intraperitoneal) in CD2F1 (CDF1) mice
Conditions: endpoint: median survival time, higher = longer survival
Procedure, shortened: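 Mice carrying the transplanted tumor received test compound or vehicle. Survival was recorded in each group, and the value is the treated-group measurement divided by that of the vehicle-treated control group.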

[1] = dose: 60.0 mg/kg/injection, schedule: Q01DX005 (ip), vehicle: saline with Tween-80
[2] = dose: 120.0 mg/kg/injection, schedule: Q01DX005 (ip), vehicle: saline with Tween-80
[3] = dose: 25.0 mg/kg/injection, schedule: Q04DX002 (ip), vehicle: saline with Tween-80
[4] = dose: 50.0 mg/kg/injection, schedule: Q04DX002 (ip), vehicle: saline with Tween-80
[5] = dose: 100.0 mg/kg/injection, schedule: Q01DX009 (ip), vehicle: saline
[6] = dose: 200.0 mg/kg/injection, schedule: Q01DX009 (ip), vehicle: saline
[7] = dose: 50.0 mg/kg/injection, schedule: Q01DX005 (ip), vehicle: Klucel (hydroxypropylcellulose) (HPC)
[8] = dose: 100.0 mg/kg/injection, schedule: Q01DX005 (ip), vehicle: Klucel (hydroxypropylcellulose) (HPC)
[9] = dose: 200.0 mg/kg/injection, schedule: Q01DX005 (ip), vehicle: Klucel (hydroxypropylcellulose) (HPC)
[10] = dose: 12.5 mg/kg/injection, schedule: Q01DX009 (ip), vehicle: saline
[11] = dose: 50.0 mg/kg/injection, schedule: Q01DX009 (ip), vehicle: saline
[12] = dose: 50.0 mg/kg/injection, schedule: Q01DX009 (ip), vehicle: suspension in saline
[13] = dose: 100.0 mg/kg/injection, schedule: Q01DX009 (ip), vehicle: suspension in saline
[14] = dose: 200.0 mg/kg/injection, schedule: Q01DX009 (ip), vehicle: suspension in saline
[15] = dose: 240.0 mg/kg/injection, schedule: Q01DX005 (ip), vehicle: saline with Tween-80
[16] = dose: 25.0 mg/kg/injection, schedule: Q01DX009 (ip), vehicle: saline with Tween-80
[17] = dose: 50.0 mg/kg/injection, schedule: Q01DX009 (ip), vehicle: saline with Tween-80
[18] = dose: 100.0 mg/kg/injection, schedule: Q01DX009 (ip), vehicle: saline with Tween-80
[19] = dose: 50.0 mg/kg/injection, schedule: Q01DX005 (ip), vehicle: saline with Tween-80
[20] = dose: 100.0 mg/kg/injection, schedule: Q01DX005 (ip), vehicle: saline with Tween-80
[21] = dose: 200.0 mg/kg/injection, schedule: Q01DX005 (ip), vehicle: saline with Tween-80

Measured: T/C

CCOC(=O)C1C(=O)[C@H](C(=O)OC)C2CCCC3CCCC1N32 (some centres undefined)
inactive: [1] 86 % of control | [2] 87 % of control

NC1=NC(c2ccccc2)C=C(c2ccccc2)N1 (centres undefined)
inactive: dose: 12.5 mg/kg/injection, schedule: Q04DX002 (ip), vehicle: saline with Tween-80 104 % of control | [3] 103 % of control | [4] 103 % of control

OC(c1ccccc1)C(O)C(c1ccccc1)N1CCCCC1 (centres undefined)
inactive: [5] 92 % of control | [6] 92 % of control

COc1cccc2c1C(=O)c1c(O)c3c(c(O)c1C2=N)C[C@@](O)(C(C)=O)CC3OC1CC(N(Cc2ccccc2)Cc2ccccc2)C(O)C(C)O1 (some centres undefined)
inactive: dose: 12.5 mg/kg/injection, schedule: Q04DX003 (ip), vehicle: saline with Tween-80 102 % of control | dose: 25.0 mg/kg/injection, schedule: Q04DX003 (ip), vehicle: saline with Tween-80 98 % of control | dose: 50.0 mg/kg/injection, schedule: Q04DX003 (ip), vehicle: saline with Tween-80 102 % of control and 123 % of control | dose: 100.0 mg/kg/injection, schedule: Q04DX003 (ip), vehicle: saline with Tween-80 111 % of control and 122 % of control | dose: 200.0 mg/kg/injection, schedule: Q04DX003 (ip), vehicle: saline with Tween-80 124 % of control | dose: 400.0 mg/kg/injection, schedule: Q04DX003 (ip), vehicle: saline with Tween-80 106 % of control

CCC[CH2][Sn]([CH2]CCC)[S]CC(N)C(=O)O (centres undefined)
inactive: dose: 0.16 mg/kg/injection, schedule: Q01DX005 (ip), vehicle: Klucel (hydroxypropylcellulose) (HPC) 107 % of control | dose: 0.23 mg/kg/injection, schedule: Q01DX005 (ip), vehicle: Klucel (hydroxypropylcellulose) (HPC) 108 % of control | dose: 0.46 mg/kg/injection, schedule: Q01DX005 (ip), vehicle: Klucel (hydroxypropylcellulose) (HPC) 103 % of control and 104 % of control | dose: 0.93 mg/kg/injection, schedule: Q01DX005 (ip), vehicle: Klucel (hydroxypropylcellulose) (HPC) 117 % of control | dose: 3.75 mg/kg/injection, schedule: Q01DX005 (ip), vehicle: Klucel (hydroxypropylcellulose) (HPC) 108 % of control

CCC1C(=O)COC1=O (centres undefined)
inactive: [7] 99 % of control | [8] 99 % of control | [9] 99 % of control

Cc1cc(C(O)(C(F)(F)F)C(F)(F)F)cc(C(O)(C(F)(F)F)C(F)(F)F)c1
inactive: [7] 100 % of control | [8] 91 % of control | [9] 97 % of control

Cc1ccc(S(=O)(=O)c2c(O)c3ccccc3c3nc4ccccc4nc23)cc1
inactive: [10] 90 % of control | dose: 12.5 mg/kg/injection, schedule: Q01DX009 (ip), vehicle: suspension in saline 88 % of control | dose: 25.0 mg/kg/injection, schedule: Q01DX009 (ip), vehicle: suspension in saline 90 % of control | [11] 89 % of control | [12] 88 % of control | [6] 91 % of control

CSc1ccc(NC(=O)Oc2ccccc2I)cc1
inactive: dose: 50.0 mg/kg/injection, schedule: Q01DX009 (ip), vehicle: Klucel (hydroxypropylcellulose) (HPC) 104 % of control | dose: 100.0 mg/kg/injection, schedule: Q01DX009 (ip), vehicle: Klucel (hydroxypropylcellulose) (HPC) 104 % of control | dose: 200.0 mg/kg/injection, schedule: Q01DX009 (ip), vehicle: Klucel (hydroxypropylcellulose) (HPC) 109 % of control

CSC(=S)n1nc(C)c(N=Nc2ccc(Br)cc2)c1C
inactive: dose: 100.0 mg/kg/injection, schedule: Q04DX002 (ip), vehicle: Klucel (hydroxypropylcellulose) (HPC) 107 % of control | dose: 200.0 mg/kg/injection, schedule: Q04DX002 (ip), vehicle: Klucel (hydroxypropylcellulose) (HPC) 103 % of control | dose: 400.0 mg/kg/injection, schedule: Q04DX002 (ip), vehicle: Klucel (hydroxypropylcellulose) (HPC) 103 % of control

CCCC1C(=O)N2C(N(C)C)=Nc3ccc(C)cc3N2C1=O (centres undefined)
inactive: [12] 101 % of control | [13] 104 % of control | [14] 106 % of control | dose: 400.0 mg/kg/injection, schedule: Q01DX009 (ip), vehicle: suspension in saline 97 % of control

O=C(O)c1ccccc1C(=O)Nc1ccccc1C(F)(F)F
inactive: dose: 178.0 mg/kg/injection, schedule: Q01DX009 (ip), vehicle: saline with Tween-80 110 % of control | dose: 266.0 mg/kg/injection, schedule: Q01DX009 (ip), vehicle: saline with Tween-80 104 % of control | dose: 400.0 mg/kg/injection, schedule: Q01DX009 (ip), vehicle: saline with Tween-80 101 % of control

Cc1nc(N)nc(Nc2ccccc2)n1
inactive: [1] 103 % of control | [2] 99 % of control | [15] 101 % of control

Cc1cc(Br)ccc1N1C(=O)CC(Sc2ccccc2N)C1=O (centres undefined)
inactive: [7] 88 % of control | [8] 95 % of control | [9] 100 % of control

O=C1OC(=Nc2cccc([N+](=O)[O-])c2)c2ccccc21
inactive: [16] 99 % of control and 103 % of control | [17] 100 % of control and 95 % of control | [18] 99 % of control and 95 % of control | dose: 200.0 mg/kg/injection, schedule: Q01DX009 (ip), vehicle: saline with Tween-80 88 % of control and 95 % of control

COc1ccc2c(c1)C13C(=O)OC4(C)OC(C)(CC41)C3C2=O (centres undefined)
inactive: dose: 100.0 mg/kg/injection, schedule: Q01DX001 (ip), vehicle: Klucel (hydroxypropylcellulose) (HPC) 98 % of control | dose: 200.0 mg/kg/injection, schedule: Q01DX001 (ip), vehicle: Klucel (hydroxypropylcellulose) (HPC) 104 % of control | dose: 400.0 mg/kg/injection, schedule: Q01DX001 (ip), vehicle: Klucel (hydroxypropylcellulose) (HPC) 95 % of control

Oc1c(N=Nc2nn[nH]n2)ccc2ccccc12
inactive: [19] 105 % of control | [20] 97 % of control | [21] 99 % of control

Cc1ccc(N2C(=O)CSC2=S)cc1C
inactive: [12] 90 % of control | [13] 90 % of control | [14] 103 % of control

C=CCOc1cc2c(cc1Cc1cc(OC)c(OC)c(OC)c1)OCO2
inactive: dose: 60.0 mg/kg/injection, schedule: Q01DX005 (ip), vehicle: saline 100 % of control | dose: 120.0 mg/kg/injection, schedule: Q01DX005 (ip), vehicle: saline 99 % of control

CSc1nc2cc(S(=O)(=O)C(F)F)ccc2s1
inactive: dose: 6.25 mg/kg/injection, schedule: Q01DX009 (ip), vehicle: Klucel (hydroxypropylcellulose) (HPC) 94 % of control | dose: 12.5 mg/kg/injection, schedule: Q01DX009 (ip), vehicle: Klucel (hydroxypropylcellulose) (HPC) 94 % of control

COc1cc(C2C3=C(CCCC3=O)Oc3cc4c(cc32)OCO4)cc(OC)c1OC (centres undefined)
inactive: [1] 91 % of control | [2] 90 % of control | [15] 98 % of control

C[N+](C)(C)CCCCC[N+](C)(C)C
inactive: dose: 6.25 mg/kg/injection, schedule: Q01DX009 (ip), vehicle: saline 110 % of control | [10] 110 % of control | [16] 100 % of control | dose: 25.0 mg/kg/injection, schedule: Q01DX009 (ip), vehicle: saline 110 % of control | [17] 104 % of control | [18] 100 % of control

CC(=O)c1ccn[nH]1
inactive: [19] 98 % of control | [20] 99 % of control | [21] 110 % of control

OC(CCC(O)(C(F)(F)F)C(F)(F)F)(C(F)(F)F)C(F)(F)F
inactive: dose: 6.25 mg/kg/injection, schedule: Q01DX005 (ip), vehicle: saline 99 % of control | dose: 12.5 mg/kg/injection, schedule: Q01DX005 (ip), vehicle: saline 101 % of control | dose: 25.0 mg/kg/injection, schedule: Q01DX005 (ip), vehicle: saline 100 % of control | [19] 103 % of control

C=C1C(=O)OC2CC3(C)C(CCC(C)=O)C3CC12 (centres undefined)
inactive: [11] 96 % of control | [5] 94 % of control | [6] 98 % of control

Cc1cccc(C)c1N=CNc1c(C)cccc1C.[Cu+2]
inactive: [16] 101 % of control and 103 % of control and 118 % of control

C=Cn1c([N+](=O)[O-])cnc1/C=C/c1ccc(C(=O)OCCN2CCOCC2)cc1
inactive: [3] 101 % of control | [4] 101 % of control | dose: 100.0 mg/kg/injection, schedule: Q04DX002 (ip), vehicle: saline with Tween-80 103 % of control and 90 % of control
